Columns and labels:
Assay type in all cases: in vivo
Diabrotica balteata = Diabrotica balteata (corn root worm), sprayed maize sprouts; conditions: 96 h, application rate 200 ppm, L2 larvae, 4 days after infestation, read-out: effect in at least one of the two categories (mortality or growth inhibition)
How it was run: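 Maize sprouts on agar sprayed with aqueous dilutions of DMSO stocks, dried, then infested with L2 larvae (6–10 per well). Mortality and growth inhibition scored against untreated controls 4 days after infestation, at 200 ppm application rate.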

Euschistus heros = Euschistus heros (neotropical brown stink bug), sprayed soybean leaves; conditions: 120 h, application rate 200 ppm, N2 nymphs, 5 days after infestation, read-out: effect in at least one of the two categories (mortality or growth inhibition)
How it was run: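 Soybean leaves on agar sprayed with aqueous dilutions of DMSO stocks, dried, then infested with N2 nymphs. Mortality and growth inhibition scored against untreated samples 5 days after infestation; application rate 200 ppm.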

Myzus persicae = Myzus persicae (green peach aphid): feeding/contact activity; conditions: 144 h, application rate 200 ppm, aphid population of mixed ages, 6 days after infestation, read-out: mortality
Protocol: (§1) Sunflower leaf discs were placed onto agar in a 24-well microtiter plate and sprayed with aqueous test solutions prepared from 10'000 ppm DMSO stock solutions. After drying, the leaf discs were infested with an aphid population of mixed ages. The samples were assessed for mortality 6 days after infestation.

Plutella xylostella = Plutella xylostella (diamond back moth), artificial diet; conditions: 120 h, application rate 200 ppm, L2 larvae, 5 days after infestation, read-out: effect in at least one of the two categories (mortality or growth inhibition)
How it was run: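 Artificial diet in 24-well plates treated with aqueous test solutions made from 10'000 ppm DMSO stocks, dried, then infested with L2 larvae (10 to 15 per well). Mortality and growth inhibition scored against untreated samples 5 days after infestation; activity cut-off at least 80% in either category at 200 ppm.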

Spodoptera littoralis = Spodoptera littoralis (Egyptian cotton leaf worm), sprayed cotton leaf discs; conditions: foliar, 72 h, application rate 200 ppm, L1 larvae, 3 days after infestation, read-out: control (mortality, anti-feeding effect, growth inhibition)
How it was run: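 Cotton leaf discs on agar sprayed with aqueous test solutions made from 10'000 ppm DMSO stock; after drying, infested with five L1 larvae. Mortality, anti-feeding and growth inhibition scored versus untreated samples 3 days after infestation; control counted when any category exceeds untreated.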

Tetranychus urticae = Tetranychus urticae (two-spotted spider mite): feeding/contact activity; conditions: 192 h, application rate 200 ppm, mixed population (mobile stages), 8 days after infestation, read-out: mortality
Protocol: Bean leaf discs on agar in 24-well microtiter plates were sprayed with aqueous test solutions prepared from 10'000 ppm DMSO stock solutions. After drying the leaf discs were infested with a mite population of mixed ages. The samples were assessed for mortality on mixed population (mobile stages) 8 days after infestation.

Thrips tabaci = Thrips tabaci (onion thrips): feeding/contact activity; conditions: 144 h, application rate 200 ppm, Thrips population of mixed ages, 6 days after infestation, read-out: mortality
Protocol: as §1, with “on” for “onto”, “in” for “in a”, “plates” for “plate”, “drying” for “drying,”, “a Thrips” for “an aphid”

CCCS(=O)(=O)N1CC(NC(=O)c2ccc(C3=NO[C@@](c4cc(Cl)c(F)c(Cl)c4)(C(F)(F)F)C3)cc2C)CO1 (some centres unmarked) [Compound A3]
≥ 80%: percent effect (mortality or growth inhibition) at 200 ppm (Diabrotica balteata) | percent effect (mortality or growth inhibition) at 200 ppm (Euschistus heros) | mortality at 200 ppm (Myzus persicae) | percent effect (mortality or growth inhibition) at 200 ppm (Plutella xylostella) | mortality at 200 ppm (Spodoptera littoralis) | mortality at 200 ppm (Tetranychus urticae) | mortality at 200 ppm (Thrips tabaci)

CCS(=O)(=O)N1CC(NC(=O)c2ccc(C3=NO[C@@](c4cc(Cl)c(F)c(Cl)c4)(C(F)(F)F)C3)cc2C)CO1 (some centres unmarked) [Compound A4]
≥ 80%: percent effect (mortality or growth inhibition) at 200 ppm (Diabrotica balteata) | percent effect (mortality or growth inhibition) at 200 ppm (Euschistus heros) | mortality at 200 ppm (Myzus persicae) | percent effect (mortality or growth inhibition) at 200 ppm (Plutella xylostella) | mortality at 200 ppm (Spodoptera littoralis) | mortality at 200 ppm (Tetranychus urticae) | mortality at 200 ppm (Thrips tabaci)

Cc1cc(C2=NO[C@@](c3cc(Cl)c(Cl)c(Cl)c3)(C(F)(F)F)C2)ccc1C(=O)NC1CON(S(=O)(=O)C2CC2)C1 (stereo partly drawn) [Compound A29, N-(2-cyclopropylsulfonylisoxazolidin-4-yl)-2-methyl-4-[(5S)-5-(3,4,5-trichlorophenyl)-5-(trifluoromethyl)-4H-isoxazol-3-yl]benzamide]
≥ 80%: percent effect (mortality or growth inhibition) at 200 ppm (Diabrotica balteata) | mortality at 200 ppm (Myzus persicae) | percent effect (mortality or growth inhibition) at 200 ppm (Plutella xylostella) | mortality at 200 ppm (Spodoptera littoralis) | mortality at 200 ppm (Tetranychus urticae) | mortality at 200 ppm (Thrips tabaci)

Cc1cc(C2=NO[C@@](c3cc(Cl)cc(Cl)c3)(C(F)(F)F)C2)ccc1C(=O)N[C@@H]1CON(S(=O)(=O)CC(F)(F)F)C1 [Compound A195, 4-[(5S)-5-(3,5-dichlorophenyl)-5-(trifluoromethyl)-4H-1,2-oxazol-3-yl]-2-methyl-N-[(4S)-2-(2,2,2-trifluoroethylsulfonyl)-1,2-oxazolidin-4-yl]benzamide]
≥ 80%: percent effect (mortality or growth inhibition) at 200 ppm (Diabrotica balteata) | percent effect (mortality or growth inhibition) at 200 ppm (Euschistus heros) | percent effect (mortality or growth inhibition) at 200 ppm (Plutella xylostella) | mortality at 200 ppm (Spodoptera littoralis) | mortality at 200 ppm (Tetranychus urticae) | mortality at 200 ppm (Thrips tabaci)

Cc1cc(C2=NO[C@](c3cc(Cl)c(F)c(Cl)c3)(C(F)(F)F)C2)ccc1C(=O)N[C@H]1CON(S(=O)(=O)CCC(F)(F)F)C1 [Compound A199, 4-[(5R)-5-(3,5-dichloro-4-fluorophenyl)-5-(trifluoromethyl)-4H-1,2-oxazol-3-yl]-2-methyl-N-[(4R)-2-(3,3,3-trifluoropropylsulfonyl)-1,2-oxazolidin-4-yl]benzamide]
≥ 80%: percent effect (mortality or growth inhibition) at 200 ppm (Diabrotica balteata) | percent effect (mortality or growth inhibition) at 200 ppm (Euschistus heros) | percent effect (mortality or growth inhibition) at 200 ppm (Plutella xylostella) | mortality at 200 ppm (Spodoptera littoralis) | mortality at 200 ppm (Tetranychus urticae) | mortality at 200 ppm (Thrips tabaci)

Cc1cc(C2=NO[C@@](c3cc(Cl)cc(Cl)c3)(C(F)(F)F)C2)ccc1C(=O)N[C@@H]1CON(S(=O)(=O)CC(=O)N(C)C)C1 [Compound A202, 4-[(5S)-5-(3,5-dichlorophenyl)-5-(trifluoromethyl)-4H-1,2-oxazol-3-yl]-N-[(4S)-2-[2-(dimethylamino)-2-oxoethyl]sulfonyl-1,2-oxazolidin-4-yl]-2-methylbenzamide]
≥ 80%: percent effect (mortality or growth inhibition) at 200 ppm (Diabrotica balteata) | percent effect (mortality or growth inhibition) at 200 ppm (Euschistus heros) | percent effect (mortality or growth inhibition) at 200 ppm (Plutella xylostella) | mortality at 200 ppm (Spodoptera littoralis) | mortality at 200 ppm (Tetranychus urticae) | mortality at 200 ppm (Thrips tabaci)

Cc1cc(C2=NO[C@@](c3cc(Cl)c(F)c(Cl)c3)(C(F)(F)F)C2)ccc1C(=O)N[C@@H]1CON(S(=O)(=O)CC(=O)NO)C1 [Compound A203, 4-[(5S)-5-(3,5-dichloro-4-fluorophenyl)-5-(trifluoromethyl)-4H-1,2-oxazol-3-yl]-N-[(4S)-2-[2-(hydroxyamino)-2-oxoethyl]sulfonyl-1,2-oxazolidin-4-yl]-2-methylbenzamide]
≥ 80%: percent effect (mortality or growth inhibition) at 200 ppm (Diabrotica balteata) | percent effect (mortality or growth inhibition) at 200 ppm (Euschistus heros) | percent effect (mortality or growth inhibition) at 200 ppm (Plutella xylostella) | mortality at 200 ppm (Spodoptera littoralis) | mortality at 200 ppm (Tetranychus urticae) | mortality at 200 ppm (Thrips tabaci)

Cc1cc(C2=NO[C@@](c3cc(Cl)c(F)c(Cl)c3)(C(F)(F)F)C2)ccc1C(=O)N[C@@H]1CON(S(N)(=O)=O)C1 [Compound A208, 4-[(5S)-5-(3,5-dichloro-4-fluorophenyl)-5-(trifluoromethyl)-4H-1,2-oxazol-3-yl]-2-methyl-N-[(4S)-2-sulfamoyl-1,2-oxazolidin-4-yl]benzamide]
≥ 80%: percent effect (mortality or growth inhibition) at 200 ppm (Diabrotica balteata) | mortality at 200 ppm (Myzus persicae) | percent effect (mortality or growth inhibition) at 200 ppm (Plutella xylostella) | mortality at 200 ppm (Spodoptera littoralis) | mortality at 200 ppm (Tetranychus urticae) | mortality at 200 ppm (Thrips tabaci)

Cc1cc(C2=NO[C@@](c3cc(Cl)c(Cl)c(Cl)c3)(C(F)(F)F)C2)ccc1C(=O)N[C@H]1CON(S(=O)(=O)CC(F)(F)F)C1 [Compound A221, 2-methyl-4-[(5S)-5-(3,4,5-trichlorophenyl)-5-(trifluoromethyl)-4H-1,2-oxazol-3-yl]-N-[(4R)-2-(2,2,2-trifluoroethylsulfonyl)-1,2-oxazolidin-4-yl]benzamide]
≥ 80%: percent effect (mortality or growth inhibition) at 200 ppm (Diabrotica balteata) | percent effect (mortality or growth inhibition) at 200 ppm (Euschistus heros) | percent effect (mortality or growth inhibition) at 200 ppm (Plutella xylostella) | mortality at 200 ppm (Spodoptera littoralis) | mortality at 200 ppm (Tetranychus urticae) | mortality at 200 ppm (Thrips tabaci)

Cc1cc(C2=NO[C@](c3cc(Cl)c(F)c(Cl)c3)(C(F)(F)F)C2)ccc1C(=O)N[C@@H]1CON(SC(F)(F)F)C1 [Compound A224, 4-[(5R)-5-(3,5-dichloro-4-fluorophenyl)-5-(trifluoromethyl)-4H-1,2-oxazol-3-yl]-2-methyl-N-[(4S)-2-(trifluoromethylsulfanyl)-1,2-oxazolidin-4-yl]benzamide]
≥ 80%: percent effect (mortality or growth inhibition) at 200 ppm (Diabrotica balteata) | percent effect (mortality or growth inhibition) at 200 ppm (Euschistus heros) | percent effect (mortality or growth inhibition) at 200 ppm (Plutella xylostella) | mortality at 200 ppm (Spodoptera littoralis) | mortality at 200 ppm (Tetranychus urticae) | mortality at 200 ppm (Thrips tabaci)

Cc1cc(C2=NO[C@](c3cc(Cl)c(F)c(Cl)c3)(C(F)(F)F)C2)ccc1C(=O)N[C@H]1CON(S(=O)(=O)CC(F)F)C1 [Compound A225, 4-[(5R)-5-(3,5-dichloro-4-fluorophenyl)-5-(trifluoromethyl)-4H-1,2-oxazol-3-yl]-N-[(4R)-2-(2,2-difluoroethylsulfonyl)-1,2-oxazolidin-4-yl]-2-methylbenzamide]
≥ 80%: percent effect (mortality or growth inhibition) at 200 ppm (Diabrotica balteata) | percent effect (mortality or growth inhibition) at 200 ppm (Euschistus heros) | percent effect (mortality or growth inhibition) at 200 ppm (Plutella xylostella) | mortality at 200 ppm (Spodoptera littoralis) | mortality at 200 ppm (Tetranychus urticae) | mortality at 200 ppm (Thrips tabaci)

Cc1cc(C2=NO[C@](c3cc(Cl)c(F)c(Cl)c3)(C(F)(F)F)C2)ccc1C(=O)N[C@H]1CON(SC(Cl)(Cl)Cl)C1 [Compound A227, 4-[(5R)-5-(3,5-dichloro-4-fluorophenyl)-5-(trifluoromethyl)-4H-1,2-oxazol-3-yl]-2-methyl-N-[(4R)-2-(trichloromethylsulfanyl)-1,2-oxazolidin-4-yl]benzamide]
≥ 80%: percent effect (mortality or growth inhibition) at 200 ppm (Diabrotica balteata) | percent effect (mortality or growth inhibition) at 200 ppm (Euschistus heros) | percent effect (mortality or growth inhibition) at 200 ppm (Plutella xylostella) | mortality at 200 ppm (Spodoptera littoralis) | mortality at 200 ppm (Tetranychus urticae) | mortality at 200 ppm (Thrips tabaci)
